According to EPA's ToxValDB 9.5 (doi:10.2903/j.efsa.2008.175r):
In brackets after ≈: the same amount, converted by molar mass.

Columns and labels:
Colinus virginianus = conditions: acute; oral; mortality
Rattus norvegicus = conditions: for NOAEL: reproduction developmental, reproduction
Coturnix coturnix = conditions: reproduction developmental
Typhlodromus pyri = assay: LR50; higher = less toxic; conditions: not reported; mortality
Canidae = conditions: oral, Dog Other, organ weight
Anas platyrhynchos = conditions: for LD50: oral, mortality
Oncorhynchus mykiss = conditions: acute; duration: 96 hours; mortality
Pimephales promelas = conditions: chronic/long-term; duration: 30 days
Daphnia magna = conditions: chronic/long-term; duration: 21 days; reproduction
Bibionidae = conditions: chronic/long-term
Folsomia candida = conditions: chronic/long-term; duration: 4 weeks
Plant = conditions: not reported; seedling emergence

SMILES: NC(Cc1ncn[nH]1)C(=O)O (configuration not stated) [1,2,4-Triazole-3-alanine]
- LD50 (Colinus virginianus): > 1340 mg/kg-day
- LD50 (Rattus norvegicus; acute, oral, mortality): > 5000 mg/kg-day
- NOAEL (Rattus norvegicus): 100 mg/kg-day

SMILES: c1nc[nH]n1 [1H-1,2,4-Triazole]
- NOEL (Coturnix coturnix): > 316 mg/kg-day

SMILES: CCCC(Cn1cncn1)c1ccc(Cl)cc1Cl (configuration not stated) [Penconazole]
- LR50 (Typhlodromus pyri): 100 g/ha
- NOAEL (Canidae; chronic, duration: 1 years): 3 mg/kg-day
- NOAEL (Canidae; subchronic, duration: 90 days): 3 mg/kg-day
- LD50 (Oryctolagus sp.; acute, oral, mortality): 971 mg/kg-day
- NOAEL (Oryctolagus sp.; developmental, development): 50 mg/kg-day
- LD50 (Anas platyrhynchos; acute, unspecified): > 1590 mg/kg-day
- NOEL (Anas platyrhynchos; reproductive): 28.6 mg/kg-day
- LD50 (Anas platyrhynchos; short-term, feed): > 1840 mg/kg-day
- LC50 (Oncorhynchus mykiss): 1.13 µg/mL (≈ 3.98 µM)
- NOEC (Pimephales promelas): 0.32 mg/L
- NOEC (Daphnia magna): 0.06 mg/L
- LC50 (Tagia sp.; acute, duration: 14 days, mortality): > 663 mg/kg
- NOEC (Tagia sp.; chronic/long-term, duration: 56 days): > 0.34 mg/kg
- NOAEL (Rattus norvegicus): 20 mg/kg-day
- NOEC (Bibionidae): 25.2 mg/kg
- NOEC (Bibionidae; duration: 28 days): 0.8 mg/L
- NOEC (Folsomia candida): 98.8 mg/kg
- LEL (Plant): 30 g/ha
